The term inhibition denotes how much of the control response was suppressed.

Consider five molecules from ChEMBL document CHEMBL1158150, “Inhibition of reverse transcriptase activity by benzophenanthridine alkaloids” (J Nat Prod, 1979).

Assay [1] relates to JLS-V9. Kind of assay: Inhibition of reverse transcriptase from Rauscher murine leukemia virus propagated in JLS-V9 cells at 6 to 18 ug/ml. In kind it is cell-based.
The test system of assay [2] is Avian myeloblastosis virus. Nature of the assay: Inhibition of AMV reverse transcriptase assessed as [3H]dGTP incorporation at 5 ug by toluene-based scintillation fluid counting in presence of poly rC.oligo dG template primer.
The test system of assay [3] is JLS-V9. Kind of assay: Inhibition of reverse transcriptase from Rauscher murine leukemia virus propagated in JLS-V9 cells at 5 to 10 ug/ml. In kind it is cell-based.
In assay [4] the test system is Avian myeloblastosis virus. Kind of assay: Inhibition of AMV reverse transcriptase at 6 to 12 ug/ml.
For assay [5], the system named is Avian myeloblastosis virus. Nature of the assay: Inhibition of AMV reverse transcriptase assessed as [3H]TTP incorporation at 5 ug by toluene-based scintillation fluid counting in presence of 2 to 20 ug poly rA.oligo dT template primer.
For assay [6], the system named is Avian myeloblastosis virus. Kind of assay: Inhibition of AMV reverse transcriptase assessed as [3H]TTP incorporation by toluene-based scintillation fluid counting in presence of 0.10 umole MnCl2.
Assay [7] relates to Avian myeloblastosis virus. Kind of assay: Inhibition of AMV reverse transcriptase assessed as [3H]TTP incorporation by toluene-based scintillation fluid counting in presence of 0.50 umole MnCl2.
For assay [8], the system named is Avian myeloblastosis virus. Kind of assay: Inhibition of AMV reverse transcriptase assessed as [3H]TMP incorporation by toluene-based scintillation fluid counting.
Assay [9] deals with Avian myeloblastosis virus. Kind of assay: Inhibition of AMV reverse transcriptase at 30 to 40 ug/ml.
For assay [10], the system named is JLS-V9. Nature of the assay: Inhibition of reverse transcriptase from MuLV propagated in JLS-V9 cells at 30 to 40 ug/ml. In kind it is cell-based. Particulars: Rauscher murine leukemia virus.
Assay [11] has as its system Avian myeloblastosis virus. Nature of the assay: Inhibition of AMV reverse transcriptase assessed as [3H]TTP incorporation at 5 ug by toluene-based scintillation fluid counting in presence of template primer.
In assay [12] the test system is Avian myeloblastosis virus. Kind of assay: Inhibition of AMV reverse transcriptase at 40 to 50 ug/ml.
Assay [13] concerns JLS-V9. Nature of the assay: Inhibition of reverse transcriptase from Rauscher murine leukemia virus propagated in JLS-V9 cells at 40 to 60 ug/ml. Format: cell-based.
Assay [14] relates to Avian myeloblastosis virus. Kind of assay: Inhibition of AMV reverse transcriptase at 12 to 18 ug/ml.
Assay [15] concerns Avian myeloblastosis virus. Kind of assay: Inhibition of AMV reverse transcriptase assessed as [3H]TTP incorporation at 5 ug by toluene-based scintillation fluid counting in presence of poly dA.oligo dT template primer.
The subject of assay [16] is Avian myeloblastosis virus. Nature of the assay: Inhibition of AMV reverse transcriptase assessed as [3H]TTP incorporation at 5 ug by toluene-based scintillation fluid counting in presence of poly rA.oligo dT template primer.
Assay [17] relates to Avian myeloblastosis virus. Nature of the assay: Inhibition of AMV reverse transcriptase assessed as [3H]TTP incorporation at 5 ug by toluene-based scintillation fluid counting in presence of activated DNA template primer.
Assay [18] concerns Avian myeloblastosis virus. Kind of assay: Inhibition of AMV reverse transcriptase assessed as [3H]TTP incorporation at 5 ug by toluene-based scintillation fluid counting in presence of 70S RNA template primer.
Assay [19] has as its system Avian myeloblastosis virus. Kind of assay: Inhibition of AMV reverse transcriptase at 50 to 60 ug/ml.
For assay [20], the system named is Avian myeloblastosis virus. Kind of assay: Inhibition of AMV reverse transcriptase at 45 to 50 ug/ml.

Active and inactive are the calls of the source. No cut-off for these calls is given here. Some results are limits rather than exact numbers.

Regarding `COc1cc2c(ccc3c4cc(OC)c(OC)cc4c[n+](C)c23)cc1O`, the result (in the assay with JLS-V9 [1]; in assay [2]; in the assay on JLS-V9 [3]; in assay [6]; in assay [7]; in assay [8]) was Active. The result in assay [11] was Active. Moreover, the inhibition in assay [4] was 50%; in [9] it was over 90%; in the assay on JLS-V9 [10], over 90%. Also, in assay [5], the outcome was inactive.

On to `COc1cc2c[n+](C)c3c4cc5c(cc4ccc3c2cc1OC)OCO5`, for which the outcome (in assay [2]; in the assay on JLS-V9 [3]; with JLS-V9 [13]; in assay [6]; in assay [7]; in assay [8]) was Active. In assay [11], the outcome was Active. Moreover, the inhibition in assay [12] was 50%. For the same molecule, the outcome in assay [5] was inactive.

As for `COc1cc2ccc3c4cc(OC)c(OC)cc4c(OC)[n+](C)c3c2cc1OC`, the outcome (with JLS-V9 [1]; in the assay with JLS-V9 [3]; in assay [6]; in assay [7]) was Active. Moreover, the inhibition in assay [2] came out at 3%; in assay [14], 50%; in assay [15] it was 97%; in assay [16], 98%; in assay [17], 96%; in assay [18] it was 95%. Also, the inhibition (in assay [9]; in the assay on JLS-V9 [10]) was over 90% each time. Besides, in [5], the result was inactive.

As for `COc1cc2c(cc1OC)C(OC)N(C)c1c-2ccc2cc3c(cc12)OCO3.O=C(O)Br` (stereo not given), the inhibition in assay [2] was determined as 2%; in assay [19], 50%; in assay [15], 93%; in assay [16], 94%; in assay [17] it was 92%; in assay [18], 91%. For the same molecule, the outcome (in the assay on JLS-V9 [3]; in the assay on JLS-V9 [13]; in [6]; in assay [7]) was Active. Also, the outcome in assay [5] was inactive.

As to `COc1cc2ccc3c4cc5c(cc4c(OC)[n+](C)c3c2cc1OC)OCO5`, the inhibition is 2% in [2]; 50% in assay [20]; 94% in [15]; 95% in assay [16]; 93% in [17]; 92% in assay [18]. Also, the outcome (in the assay on JLS-V9 [3]; with JLS-V9 [13]; in assay [6]; in assay [7]) was Active. Moreover, the outcome in assay [5] was inactive.
